Data published in patent publication US4549022A, “4-Pyridone-3-carboxylic acid derivatives” (Hoffmann-La Roche Inc., priority 1978, dated 1985).
≈ marks a conversion by molar mass, not a printed value. Where two headings read alike, the source gives them in different places.

Experiments:
Escherichia coli [1] = experiment: Escherichia coli in vitro MIC (Minimum Inhibitory Concentration); assay type: cell-based
Escherichia coli [2] = experiment: Escherichia coli in vivo (mouse) ED50
LD50 (acute toxicity) = assay type: in vivo
central nervous system = experiment: Turning rat test (minimum active dosage); assay type: in vivo
[3] = vs d-amphetamine and d-methamphetamine, see Table 1

| SMILES | MIC (Escherichia coli [1]; read-out: MIC) [µg/mL] | ED50 (Escherichia coli [2]; po, read-out: ED50) [mg/kg] | other results |
| --- | --- | --- | --- |
| CCn1cc(C(=O)O)c(=O)cc1-c1ccc(OC)cc1 [1-ethyl-6-(4-methoxyphenyl)-4-oxo-1,4-dihydronicotinic acid] | 2.5 (≈ 9.15 µM) | > 100 | – |
| O=C1CN(/N=C/c2ccc([N+](=O)[O-])o2)C(=O)N1 [Nitrofurantoin, reference compound] | 5 (≈ 21 µM) | > 100 | – |
| CCn1cc(C(=O)O)c(=O)cc1-c1ccc2c(c1)OCO2 [1-ethyl-6-(3,4-methylenedioxyphenyl)-4-oxo-1,4-dihydronicotinic acid] | 2.5 (≈ 8.7 µM) | > 100 | – |
| CCn1cc(C(=O)O)c(=O)cc1-c1ccc(N2CCCC2)cc1 [1-ethyl-6-(4-pyrrolidinophenyl)-4-oxo-1,4-dihydronicotinic acid] | 1.2 (≈ 3.84 µM) | 19 | – |
| CCn1cc(C(=O)O)c(=O)cc1-c1ccc(NC)c(C)c1 [1-ethyl-6-(3-methyl-4-methylaminophenyl)-4-oxo-1,4-dihydronicotinic acid] | 0.6 (≈ 2.1 µM) | 3.5 | – |
| CCn1cc(C(=O)O)c(=O)cc1-c1ccc(-n2cccc2)cc1 [1-ethyl-6-(4-pyrrolophenyl)-4-oxo-1,4-dihydronicotinic acid] | – | – | MIC (Escherichia coli [1]): 1.2 µg/mL (≈ 3.89 µM); ED50 (Escherichia coli [2]; p.o.): 34 mg/kg |
| CCn1cc(C(=O)O)c(=O)cc1-c1ccc(SC)cc1 [1-ethyl-6-(4-methylthiophenyl)-4-oxo-1,4-dihydronicotinic acid] | 2.5 (≈ 8.64 µM) | 82 | – |
| CCn1cc(C(=O)O)c(=O)cc1-c1ccc(N(C)C)cc1 [1-ethyl-6-[4-(dimethylamino)-phenyl]-4-oxo-1,4-dihydronicotinic acid] | 0.6 (≈ 2.1 µM) | 8.8 | – |
| CCn1cc(C(=O)O)c(=O)cc1-c1ccccc1 [1-ethyl-4-oxo-6-phenyl-1,4-dihydronicotinic acid] | – | – | LD50 (LD50 (acute toxicity); in vivo, po): 300 to 600 mg/kg; LD50 compared with d-amphetamine and d-methamphetamine (LD50 (acute toxicity); [3]): substantially lower LD50; LD50 compared with nomifensin (LD50 (acute toxicity); vs nomifensin, see Table 1): about the same LD50; Turning rat test minimum active dosage (central nervous system; Arch. int. Pharmacodyn. Ther. 217, 118-130 (1975)): 1; activity compared with d-amphetamine and d-methamphetamine (central nervous system; [3]): about the same strong activity; activity compared with nomifensin (central nervous system; vs nomifensin, see Table 1): substantially superior activity to nomifensin |
